Measured values reported in publication PMC3956608 (PLoS ONE, 2014).

Columns and labels:
[1] = biological target: T1, acetylcholine binding protein (Ls-AChBP) (Lymnaea stagnalis, UniProt P58154); test: radioligand binding, HEK-293 cell homogenate; design: Ls-AChBP linked to a 5HT3 receptor ion channel (Ls-AChBP-5HT3 receptor chimera); conditions: cited from earlier work
[2] = biological target: T1, acetylcholine binding protein (Ls-AChBP); test: biochemical

T1 sequence (P58154 20-229): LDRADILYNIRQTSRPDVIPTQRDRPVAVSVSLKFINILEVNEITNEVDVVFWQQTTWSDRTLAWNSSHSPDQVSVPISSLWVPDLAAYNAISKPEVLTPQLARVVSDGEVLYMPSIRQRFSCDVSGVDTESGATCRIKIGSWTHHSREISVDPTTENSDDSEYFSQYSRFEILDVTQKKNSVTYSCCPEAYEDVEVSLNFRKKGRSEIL

Row | Compound | Kd [1] | Ki [2]
1 | Clc1ccc(C2CC3CCC2N3)cn1 (centres unmarked) [[3H]-epibatidine] | 0.097 nM | –
2 | CC(=O)OCC[N+](C)(C)C [acetylcholine] | – | 1500 nM
